Measurements: the NIST ThermoML archive (doi:10.1016/j.jct.2015.04.027)

Test: xn = mol fraction of the nth substance listed
Details: 100 kPa, Liquid; for viscosity: Falling or rolling sphere viscometry; for mass density: Vibrating tube method

CN(C)C(=[NH2+])N(C)C.c1c[n-]cn1 [1,1,3,3-tetramethylguanidinium imidazol-1-ide] + CCO
Details	mass density, 293.15 K [kg/m3]	mass density, 298.15 K [kg/m3]	mass density, 303.15 K [kg/m3]	mass density, 308.15 K [kg/m3]	mass density, 313.15 K [kg/m3]	viscosity, 293.15 K [mPa·s]	viscosity, 298.15 K [mPa·s]	viscosity, 303.15 K [mPa·s]	viscosity, 308.15 K [mPa·s]	viscosity, 313.15 K [mPa·s]
x1 = 0.0483	821.2	816.85	812.47	808.06	803.63	1.422	1.289	1.174	1.072	0.982
x1 = 0.0999	848.92	844.52	840.1	835.66	831.19	1.714	1.548	1.405	1.28	1.17
x1 = 0.2003	888.15	883.71	879.24	874.77	870.28	2.371	2.114	1.897	1.711	1.549
x1 = 0.3001	916.24	911.78	907.3	902.82	898.33	3.145	2.755	2.438	2.173	1.949
x1 = 0.3999	937.23	932.77	928.29	923.8	919.31	4.057	3.498	3.054	2.69	2.388
x1 = 0.5	953.33	948.83	944.31	939.83	935.34	5.057	4.296	3.643	3.174	2.822
x1 = 0.643	970.7	966.31	961.81	957.39	952.91	6.351	5.318	4.452	3.891	3.384
x1 = 0.7966	984.34	979.99	975.53	971.06	966.6	7.695	6.345	5.333	4.539	3.911
x1 = 0.8987	991.38	986.93	982.47	978.02	973.57	8.46	6.936	5.786	4.909	4.229
x1 = 1	997.25	992.8	988.35	983.9	979.46	8.952	7.287	6.044	5.097	4.358

CN(C)C(=[NH2+])N(C)C.c1c[n-]cn1 [1,1,3,3-tetramethylguanidinium imidazol-1-ide] + CO
Details	mass density, 293.15 K [kg/m3]	mass density, 298.15 K [kg/m3]	mass density, 303.15 K [kg/m3]	mass density, 308.15 K [kg/m3]	mass density, 313.15 K [kg/m3]	viscosity, 293.15 K [mPa·s]	viscosity, 298.15 K [mPa·s]	viscosity, 303.15 K [mPa·s]	viscosity, 308.15 K [mPa·s]	viscosity, 313.15 K [mPa·s]
x1 = 0.0501	840.28	835.36	830.44	825.51	820.57	0.905	0.829	0.765	0.709	0.659
x1 = 0.1005	872.86	868.04	863.19	858.35	853.49	1.272	1.108	1.014	0.931	0.859
x1 = 0.1957	912.69	907.98	903.25	898.51	893.76	1.979	1.768	1.592	1.442	1.314
x1 = 0.2953	938.06	933.41	928.74	924.08	919.38	2.761	2.423	2.148	1.918	1.724
x1 = 0.393	954.84	950.24	945.62	941	936.36	3.723	3.212	2.804	2.468	2.192
x1 = 0.5005	968.24	963.68	959.1	954.53	949.94	4.794	4.098	3.53	3.077	2.702
x1 = 0.6431	980.21	975.69	971.16	966.63	962.09	6.21	5.186	4.369	3.783	3.274
x1 = 0.7815	988.47	983.99	979.49	975	970.51	7.421	6.122	5.141	4.38	3.777
x1 = 0.8994	993.77	989.31	984.84	980.37	975.91	8.342	6.826	5.692	4.819	4.134
x1 = 1	997.25	992.8	988.35	983.9	979.46	8.952	7.287	6.044	5.097	4.358
